Measurements reported in patent publication US11395835B2, “Use of common gamma chain cytokines for the visualization, isolation and genetic modification of memory T lymphocytes” (OSPEDALE SAN RAFFAELE S.R.L., priority 2005, dated 2022).

Columns and labels:
[1] = test system: CD4+ T cells from tumor-draining LN of TS/A-LACK tumor-bearing 16.2β mice; test: IL-7-driven accumulation of fast-proliferating memory CD4+ T cells with inhibitors; assay type: cell-based; settings: IL-7-driven cultures, 7 days
From the text: FIG. 11. Intermediate memory CD4^+ T cells accumulate in the presence of IL-7 in a cell-density dependent, CsA-sensitive manner. Cells derived from the axillary, brachial and inguinal LN of naïve (A, B) and TS/A-LACK tumor-bearing (C-E) 16.20 mice were labeled with CFSE and respectively cultured for 7 days in plain medium, in the presence of LACK peptide (Ag) (A, B) or IL-7 (C-E) in the absence (nil) or in the presence of the indicated inhibitors. At the end of the culture the cells were stimulated for 5 h with L/28 aAPCs, and intracellular cytokine release was determined. A-D) Histograms show the CFSE dilution profile of equivalent numbers of (7×10^4) CD4^+ T cells. In A and C the thin lines reflect the CFSE profile of CD4+ T cells cultured in plain medium, while the thick lines depict the CFSE profile of CD4+ T cells cultured in Ag or IL-7, respectively. […]
(§1) 5 μm polystyrene sulfate latex beads (Interfacial Dynamics) were coated with I-A^d/LACK dimers (20 μg/ml) and anti-CD28 mAb (37.51; 2 μg/ml) (LACK aAPC) or with anti-CD28 mAb only (control aAPC). Coating of the proteins was monitored by flow cytometry analysis. […] The total number of Ag-specific IL-2^+/IFN-γ^+ T cells was determined by multiplying the percentage by the total number of Trypan Blue-negative LN cells.

[2] = test system: naïve CD4+ T cells of 16.2β mice stimulated with LACK-pulsed APC; test: Ag-driven proliferation of naive T cells with inhibitors (CFSE); assay type: cell-based; settings: 7 days
From the text: FIG. 11. Intermediate memory CD4^+ T cells accumulate in the presence of IL-7 in a cell-density dependent, CsA-sensitive manner. Cells derived from the axillary, brachial and inguinal LN of naïve (A, B) and TS/A-LACK tumor-bearing (C-E) 16.20 mice were labeled with CFSE and respectively cultured for 7 days in plain medium, in the presence of LACK peptide (Ag) (A, B) or IL-7 (C-E) in the absence (nil) or in the presence of the indicated inhibitors. At the end of the culture the cells were stimulated for 5 h with L/28 aAPCs, and intracellular cytokine release was determined. A-D) Histograms show the CFSE dilution profile of equivalent numbers of (7×10^4) CD4^+ T cells. In A and C the thin lines reflect the CFSE profile of CD4+ T cells cultured in plain medium, while the thick lines depict the CFSE profile of CD4+ T cells cultured in Ag or IL-7, respectively. In B and D, thin line: cells cultured in the absence of the inhibitor, thick line: cells cultured in the presence of the inhibitor. E) Dot plots are shown after gating on viable CD4^+ T cells. Percentages indicate the frequency of LACK-specific cytokine secreting cells.
(§2) Twenty days after tumor cell injection mice were sacrificed and the axillary, brachial and inguinal peripheral lymph nodes (LN) draining and distal (non draining LN) to the site of tumor growth were recovered. […]

[3] = test system: CD4+ T cells from TS/A-LACK tumor draining LN; test: TO-PRO-3 viability of CFSE-labeled LN cultures maintained in cytokines; assay type: cell-based, mice; settings: total CD4+ cells, after a week in culture with the cytokine alone
From the text: (§3) FIG. 5. IL-7 and IL-2 favor T cell survival and the optimal expression of Bcl-2. Cells from TS/A-LACK tumor draining LN were labeled with the CFSE vital dye and cultured in the absence (−) or in the presence of IL-7, IL-2, IL-15 and IL-6 alone. After 7 days, cells were recovered and stained with anti-CD4 mAb and TO-PRO-3 (A) and with anti-Bcl-2 mAb (B, C). A) representative dot plots of total CD4^+ cells are shown. The frequencies of total CD4^+ TOPRO-3^+ (brackets) and of CFSE dim, TO-PRO-3″ cells (bold) are reported. B-C) events are shown after physical gating on viable CD4^+ T lymphocytes. C) thin line: isotype control; thin lines-shaded profile: anti-Bcl-2 Ab, medium cultured cells; thick lines: anti-Bcl-2 Ab, cytokine-cultured cells. The experiment is representative of 2 independent determinations.
as §2, with “recovered. In the experiments of dendritic cell (DC) vaccination, mice were sacrificed fourteen days after DC administration and the axillary, brachial and inguinal LN were surgically excised.” for “recovered.”

[4] = test system: CD4+ T cells from TS/A-LACK tumor draining LN; test: Bcl-2 expression in CFSE-labeled LN cultures maintained in cytokines; assay type: cell-based, mice; settings: 7 days culture with the cytokine alone
From the text: as §3
FIG. 6. Phenotype and subset representation of lymphocytes maintained in IL-7 and IL-2. CFSE-labeled TS/A-LACK-tumor-draining LN cultures were maintained for a week in the presence of IL-7 or IL-2. Thereafter the cells were stained with anti CD4, CD44, CD25, CD127, and CD132 mAbs. A) representative dot plots report the expression levels of CD44, CD62L, CD25, CD127, and CD132 of viable CD4+. B) overlay of CD4^+, CFSE dim cells derived from IL-7 (thin lines) and IL-2 (thick lines) cultures in the absence of Ag-stimulation are shown. […]

[5] = test system: LACK-specific CD4+ T cells from LN of TS/A-LACK tumor-bearing BALB/c mice; test: Ag-free short-term culture: I-Ad/LACK multimer staining, LACK-specific intracellular cytokine release, CFSE dilution; assay type: cell-based; settings: CFSE-labeled LN cells, 7 days, versus nil cultures
Experimental: Twenty days after tumor cell injection mice were sacrificed and the axillary, brachial and inguinal peripheral lymph nodes (LN) draining and distal (non draining LN) to the site of tumor growth were recovered. In the experiments of dendritic cell (DC) vaccination, mice were sacrificed fourteen days after DC administration and the axillary, brachial and inguinal LN were surgically excised. LN cells were cultured in 24 well plates at the density of 5×10^6 in complete medium in the absence or in the presence of recombinant murine IL-7 (200 ng/ml), IL-2 (20 ng/ml), IL-6 (45 ng/ml), or IL-15 (100 ng/ml) (all from Peprotech). In parallel cultures, cells were in vitro stimulated with the LACK-derived MHC II-restricted peptide (5 (25)) and 5×10^6 irradiated syngeneic splenocytes. As a control similar cultures were set up from syngeneic naïve mice. […]
as §1

[6] = test system: AH-1-specific CD8+ T cells; test: Cytokine-driven culture of tumor-draining LN, AH-1-specific intracellular cytokine release; assay type: cell-based, BALB/c mice; settings: 7 days culture without Ag re-stimulation; undetectable ex vivo
Experimental: FIG. 10. IL-7 favors the accumulation of tumor-specific memory CD8^+ T cells otherwise undetectable ex vivo. A) BALB/c mice (5 mice per group) were challenged with 3×10^5 TS/A-LACK tumor cells and sacrificed 21 days later. Cells from pools of tumor draining LN (A-C) were analyzed ex vivo (A) and after 7 days in culture in the absence or in the presence of IL-7, IL-2, IL-15, IL-6 (B-C). A) Representative dot plots depict IL-2 and IFN-γ production by KJ1.26^− CD8^+ T cells. The frequency (A, B) and total number (C) of AH-1-specific cytokine-producing KJ1.26^− CD8^+ T cells is reported.
as §2, with “recovered. In the experiments of dendritic cell (DC) vaccination, mice were sacrificed fourteen days after DC administration and the axillary, brachial and inguinal LN were surgically excised.” for “recovered.”
as §1

Compound | effect on IL-7-driven accumulation of fast-dividing CFSEdim CD4+ T cells and LACK-specific cells [1] | effect on Ag-driven T cell proliferation [2] | TO-PRO-3+ dead cells [3] [%] | CD4+ T cells expressing optimal (high) Bcl-2 levels [4] [%] | in vitro proliferation of CD4+ T cells and accumulation of LACK-specific CD4+ T cells [5] | frequency and total number of AH-1-specific CD8+ T cells [6]
CC(C)(C)n1nc(-c2ccc(Cl)cc2)c2c(N)ncnc21 [PP2] | only partially inhibited | – | – | – | – | –
Oc1ccc(-c2nc(-c3ccncc3)c(-c3ccc(F)cc3)[nH]2)cc1 [SB202190] | only partially inhibited | failed to inhibit | – | – | – | –
IL-6: recombinant IL-6 used as negative control cytokine | – | – | 73 | 10.5 | failed to support | not increased
